Test results: patent US20260001875A1, “AMINOPYRIMIDINYL DERIVATIVES FOR THE TREATMENT OF PARKINSON'S DISEASE” (UNIVERSITY OF DUNDEE, priority 2022, published 2026)

How the values were obtained:
Rab10 pThr73 [1] = assay: Rab10 Thr73 dephosphorylation (immunoblot) in LRRK2^G2019S MEFs; assay type: cell-based; conditions: Mus musculus, read-out: pRab10 inhibited in LRRK2^G2019S MEFs
Method: (§1) The second-generation PROTACs were tested in parallel with the first generation PROTACs SD75, SD82, and SD100. The compounds were tested at 33 nM or […] concentrations for 4 hours or 24 hours, running two biological replicates per condition and achieving quantifications representative of both replicates. Analysis by quantitative immunoblotting was performed with readouts of the total LRRK2 (antibody recognizes epitope in C-terminus of protein), Rab10 pThr73 (physiological substrate) and LRRK2 pSer935 (biomarker phosphorylation site).
(§2) Primary MEFs were generated as described in a previous study (Wiggin et al., Mol. Cell Biol. 2002 April; 22(8):2871-81.). Briefly, the uterine horn was collected from adult female mice at day E12.5 and transferred to a 10 cm tissue culture dish containing cold PBS. Two forceps were used to tear the yolk sacs to isolate each embryo. Forceps were cleaned thoroughly with 70% ethanol between each embryo isolation. The embryos were culled, and a tissue piece was collected in a PCR tube for genotyping. The red tissue of the embryo, which grows to become the heart and liver, was removed. The remainder of the embryo was minced with a scalpel blade and incubated with 7.5 ml trypsin-EDTA solution for 10 minutes in a 37° C. tissue culture CO2 incubator. The dish was removed from the incubator and checked under a light microscope for single cells. 7.5 ml complete media was added to the trypsinised cells, and the cell suspension was transferred to a 15 ml Falcon tube, centrifuged at 1200 rpm for 5 minutes at room temperature. The trypsin was aspirated, the cell pellet was resuspended in 5 ml fresh complete media, and the cell suspension was plated in a 60 mm tissue culture dish and incubated in a 37° C., 5% CO2 tissue culture incubator. The MEFs at this stage were considered as passage 0 and were passaged and expanded for experimental use once the genotype was confirmed by allelic sequencing and immunoblotting. MEFs were cultured in Dulbecco's modified Eagle medium (DMEM) containing 10% (v/v) fetal bovine serum (FBS), 2 mM L-glutamine, 100 U/ml penicillin, and 100 μg/ml streptomycin supplemented with 1× non-essential amino acids and 1 mM sodium pyruvate.
Culturing and passaging of adherent cell lines were carried out using aseptic technique in CL1 or CL2 (for PBMC isolation) biological safety cabinets. All cells were incubated in a 37° C. incubator with 5% CO2. Cell lines were regularly tested for mycoplasma contamination. For western blot assay, the cells were seeded in 6-well plates. […] The cells were immediately placed on ice and were scraped and collected into 1.5 ml Eppendorf tubes. Cell lysates were incubated on ice for 10 minutes prior to centrifugation at 15,000 g at 4° C. for 15 minutes. The cell pellet was discarded, and supernatant was collected for analysis by quantitative immunoblotting. For long term storage, the supernatant was flash frozen and stored at −80° C. Protein concentrations of cell lysates were determined using the Bradford assay.
Cell lysates containing a quarter of a volume of 4× NuPAGE LDS sample buffer (NP0007) supplemented with 5% β-mercaptoethanol, were heated at 95° C. for 5 minutes. 15 to 20 μg of samples were loaded onto pre-cast 4-12% Bis-Tris midi 20W or 26W gels (Thermofisher Scientific®, Cat #WG1402BOX or WG1403BOX) and resolved at 130 V for 2 hours with NuPAGE MOPS SDS running buffer (Thermofisher Scientific® Cat #NP0001-02). Proteins were electrophoretically transferred onto a 0.45 μm nitrocellulose membrane (GE Healthcare, Amersham Protran® Supported 0.45 mm NC) at 90 V for 90 min on ice in transfer buffer (48 mM Tris base and 39 mM glycine supplemented with 20% methanol). The transferred membrane was blocked with 5% (w/v) skim milk powder dissolved in tris-buffered saline with tween (TBS-T) (50 mM Tris base, 150 mM sodium chloride (NaCl), 0.1% (v/v) Tween-20) at room temperature for 1 hour.

Rab10 pThr73 [2] = assay: Rab10 Thr73 dephosphorylation (immunoblot) in WT MEFs; assay type: cell-based, mouse; conditions: Mus musculus, read-out: pRab10 inhibited in WT MEFs
Method: as §1, with “Western blot degradation assays for the LRRK2 protacs were performed with WT and PD-associated LRRK2 [G2019S] mouse embryonic fibroblasts (MEFs). The second-generation” for “The second-generation”
as §2
Culturing and passaging of adherent cell lines were carried out using aseptic technique in CL1 or CL2 (for PBMC isolation) biological safety cabinets. All cells were incubated in a 37° C. incubator with 5% CO2. Cell lines were regularly tested for mycoplasma contamination. For western blot assay, the cells were seeded in 6-well plates. After treating with testing compounds at indicated concentrations and time period, the media was removed and the cells were washed with PBS and lysed in 100 μl ice-cold complete lysis buffer containing 50 mM Tris-HCl pH 7.4, 1 mM EGTA, 10 mM 2-glycerophosphate, 50 mM sodium fluoride, 5 mM sodium pyrophosphate, 270 mM sucrose, supplemented with 1 μg/ml microcystin-LR, 1 mM sodium orthovanadate, complete EDTA-free protease inhibitor cocktail (Roche) and 1% (v/v) Triton X-100. The cells were immediately placed on ice and were scraped and collected into 1.5 ml Eppendorf tubes. Cell lysates were incubated on ice for 10 minutes prior to centrifugation at 15,000 g at 4° C. for 15 minutes. The cell pellet was discarded, and supernatant was collected for analysis by quantitative immunoblotting. For long term storage, the supernatant was flash frozen and stored at −80° C. Protein concentrations of cell lysates were determined using the Bradford assay.
Cell lysates containing a quarter of a volume of 4× NuPAGE LDS sample buffer (NP0007) supplemented with 5% β-mercaptoethanol, were heated at 95° C. for 5 minutes. […]

Rab10 pThr73 [3] = assay: Rab10 Thr73 dephosphorylation (immunoblot) in LRRK2^G2019S MEFs; assay type: cell-based, mouse; conditions: Mus musculus, read-out: pRab10 inhibited in LRRK2^G2019S MEFs

Structure (SMILES)	inhibition at 0.033 µM (Rab10 pThr73 [1]; 33 nM/4 h treatment) [%]	inhibition at 0.033 µM (Rab10 pThr73 [1]; 33 nM/24 h treatment) [%]	inhibition at 0.033 µM (Rab10 pThr73 [2]; 33 nM/4 h treatment) [%]	inhibition at 0.033 µM (Rab10 pThr73 [2]; 33 nM/24 h treatment) [%]	inhibition at 1 µM (Rab10 pThr73 [2]; 1 μM/4 h treatment) [%]	inhibition at 1 µM (Rab10 pThr73 [2]; 1 μM/24 h treatment) [%]	inhibition at 1 µM (Rab10 pThr73 [3]; 1 μM/4 h treatment) [%]	inhibition at 1 µM (Rab10 pThr73 [3]; 1 μM/24 h treatment) [%]
CNc1nc(Nc2ccc(C(=O)N3CCN(CCOCCOCCOc4cccc(C(=O)c5csc(C6CCCN6C(=O)[C@@H](NC(=O)[C@H](C)NC)C6CCCCC6)n5)c4)CC3)cc2OC)ncc1Cl (stereo partly drawn) [SD113, (S)—N—((S)-2-((S)-2-(4-(3-(2-(2-(2-(4-(4-((5-chloro-4-(methylamino)pyrimidin-2-yl)amino)-3-methoxybenzoyl)piperazin-1-yl)ethoxy)ethoxy)ethoxy)benzoyl)thiazol-2-yl)pyrrolidin-1-yl)-1-cyclohexyl-2-oxoethyl)-2-(methylamino)propenamide]	0 to 60	0 to 70	0 to 25	10 to 40	18 to 90	30 to 90	30 to 95	30 to 100
CNc1nc(Nc2ccc(C(=O)N3CCN(CCCOc4cccc(C(=O)c5csc(C6CCCN6C(=O)[C@@H](NC(=O)[C@H](C)NC)C6CCCCC6)n5)c4)CC3)cc2OC)ncc1Cl (stereo partly drawn) [SD114, (S)—N—((S)-2-((S)-2-(4-(3-(3-(4-(4-((5-chloro-4-(methylamino)pyrimidin-2-yl)amino)-3-methoxybenzoyl)piperazin-1-yl)propoxy)benzoyl)thiazol-2-yl)pyrrolidin-1-yl)-1-cyclohexyl-2-oxoethyl)-2-(methylamino)propenamide]	0 to 60	0 to 70	0 to 25	10 to 40	18 to 90	30 to 90	30 to 95	30 to 100
CNc1nc(Nc2ccc(C(=O)N3CCN(Cc4ccc(CSC(C)(C)[C@H](NC(=O)C5(F)CC5)C(=O)N5C[C@H](O)C[C@H]5C(=O)NCc5ccc(-c6scnc6C)cc5)cc4)CC3)cc2OC)ncc1C(F)(F)F [XL01070B, (2S,4R)-1-((R)-2-(1-fluorocyclopropane-1-carboxamido)-3-((4-((4-(3-methoxy-4-((4-(methylamino)-5-(trifluoromethyl)pyrimidin-2-yl)amino)benzoyl)piperazin-1-yl)methyl)benzyl)thio)-3-methylbutanoyl)-4-hydroxy-N-(4-(4-methylthiazol-5-yl)benzyl)pyrrolidine-2-carboxamide]	0 to 70	0 to 90	0 to 40	0 to 60	10 to 95	30 to 100	20 to 100	10 to 100
CNc1nc(Nc2ccc(C(=O)N3CCN(CCCSC(C)(C)[C@H](NC(=O)C4(F)CC4)C(=O)N4C[C@H](O)C[C@H]4C(=O)NCc4ccc(-c5scnc5C)cc4)CC3)cc2OC)ncc1C(F)(F)F [XL01072, (2S,4R)-1-((R)-2-(1-fluorocyclopropane-1-carboxamido)-3-((3-(4-(3-methoxy-4-((4-(methylamino)-5-(trifluoromethyl)pyrimidin-2-yl)amino)benzoyl)piperazin-1-yl)propyl)thio)-3-methylbutanoyl)-4-hydroxy-N-(4-(4-methylthiazol-5-yl)benzyl)pyrrolidine-2-carboxamide]	0 to 70	0 to 90	0 to 40	0 to 60	10 to 95	30 to 100	20 to 100	10 to 100
CNc1nc(Nc2ccc(C(=O)N3CCN(CC#CCSC(C)(C)[C@H](NC(=O)C4(F)CC4)C(=O)N4C[C@H](O)C[C@H]4C(=O)NCc4ccc(-c5scnc5C)cc4)CC3)cc2OC)ncc1Cl [XL01076, (2S,4R)-1-((R)-3-((4-(4-(4-((5-chloro-4-(methylamino)pyrimidin-2-yl)amino)-3 methoxybenzoyl)piperazin-1-yl)but-2-yn-1-yl)thio)-2-(1-fluorocyclopropane-1-carboxamido)-3-methylbutanoyl)-4-hydroxy-N-(4-(4-methylthiazol-5-yl)benzyl)pyrrolidine-2-carboxamide]	0 to 70	0 to 90	0 to 40	0 to 60	10 to 95	30 to 100	20 to 100	10 to 100
CNc1nc(Nc2ccc(C(=O)N3CCN(CCOCCOCCSC(C)(C)[C@@H](NC(=O)C4(F)CC4)C(=O)N4C[C@H](O)C[C@H]4C(=O)NCc4ccc(-c5scnc5C)cc4)CC3)cc2OC)ncc1C(F)(F)F [XL01078B, (2S,4R)-1-((S)-2-(1-fluorocyclopropane-1-carboxamido)-3-((2-(2-(2-(4-(3-methoxy-4-((4-(methylamino)-5-(trifluoromethyl)pyrimidin-2-yl)amino)benzoyl)piperazin-1-yl)ethoxy)ethoxy)ethyl)thio)-3-methylbutanoyl)-4-hydroxy-N-(4-(4-methylthiazol-5-yl)benzyl)pyrrolidine-2-carboxamide]	0 to 70	0 to 90	0 to 40	0 to 60	10 to 95	30 to 100	20 to 100	10 to 100
